Experimental data reported in the supplement of paper PMC8024199.
± gives the standard deviation of the averaged measurements.

Tests used:
Test in all cases: drug sensitivity score (DSS) (DSS score); higher = more sensitive (stronger growth inhibition); extreme values may be limits of the assay
[1] = system: Ba/F3 P210-BCR-ABL1 RUNX1-/- (mouse)
How it was run: (§1)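 Mouse Ba/F3 cells, either CRISPR/Cas9-edited at a target exon or edited-control clones, were screened against a 528-compound library on pre-printed 384-well plates. Each compound was tested at five concentrations across a 10,000-fold range, with 10,000 cells per well in RPMI with 10% FBS for 72 h at 37 °C and 5% CO2. CellTiter-Glo luminescence was scaled between vehicle and positive-control wells, and each dose-response was summarised as a drug sensitivity score. Scores were averaged over two replicates.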

[2] = system: Ba/F3 P210-BCR-ABL1 RUNX1-/mut (mouse)
How it was run: as §1

[3] = system: Ba/F3 P210-BCR-ABL1 RUNX1wt/wt control (mouse)
How it was run: as §1

SMILES | drug sensitivity score [1] | drug sensitivity score [2] | drug sensitivity score [3]
Cn1ncc(Cl)c1-c1cc(C(=O)N[C@H](CN)Cc2cccc(F)c2)sc1Cl [Afuresertib] | 1.05 ± 1.1 | 1.6 ± 2.3 | 0
COc1cccc2c1C(=O)c1c(O)c3c(c(O)c1C2=O)C[C@@](O)(/C(CO)=N/NC(=O)CCCCCN1C(=O)C=CC1=O)C[C@@H]3O[C@H]1C[C@H](N)[C@H](O)[C@H](C)O1 [Aldoxorubicin] | 20.3 ± 0.71 | 18.1 ± 0.35 | 11.2 ± 0.35
CCc1cc2c(cc1N1CCC(N3CCOCC3)CC1)C(C)(C)c1[nH]c3cc(C#N)ccc3c1C2=O [Alectinib] | 1.05 ± 0.35 | 0.7 ± 0.99 | 0
Cc1nc(NC(=O)N2CCC[C@H]2C(N)=O)sc1-c1ccnc(C(C)(C)C(F)(F)F)c1 [Alpelisib] | 2.5 ± 0.57 | 3 ± 1.8 | 0.75 ± 1.1
O=C(Nc1cc(Oc2cc(F)c(NC(=O)C3(C(=O)Nc4ccc(F)cc4)CC3)cc2F)ccn1)C1CC1 [Altiratinib] | 10.8 | 6.8 ± 0.85 | 5.45 ± 0.21
CCN(CC)CCNC(=O)c1c(C)[nH]c(/C=C2\C(=O)Nc3ccc(-c4csc(-c5ccccc5)n4)cc32)c1C [Amcasertib] | 5.95 ± 1.6 | 5.35 ± 7.6 | 0
COc1cc(NS(C)(=O)=O)ccc1Nc1c2ccccc2nc2ccccc12 [Amsacrine] | 35.3 ± 2.7 | 25.3 ± 0.71 | 21.6 ± 0.85
S=C(NCc1ccc2c(c1)OCO2)N1CCN(c2ncnc3c2oc2ccccc23)CC1 [Amuvatinib] | 11.3 ± 1.3 | 8.45 ± 1.9 | 14.9 ± 1.1
CNC(=O)c1ccc(N2C(=S)N(c3cnc(C#N)c(C(F)(F)F)c3)C(=O)C23CCC3)cc1F [Apalutamide] | 0 | 0 | 0
N#CC1(c2ccc(NC(=O)c3cccnc3NCc3ccncc3)cc2)CCCC1 [Apatinib] | 0.4 ± 0.57 | 0 | 0
O=C(Nc1ccc(OC(F)(F)Cl)cc1)c1cnc(N2CC[C@@H](O)C2)c(-c2cc[nH]n2)c1 [Asciminib] | 31.85 ± 0.071 | 10.7 ± 4.5 | 18.8 ± 0.71
CC(C)c1c(C(=O)Nc2ccccc2)c(-c2ccccc2)c(-c2ccc(F)cc2)n1CC[C@@H](O)C[C@@H](O)CC(=O)O [Atorvastatin] | 0.65 ± 0.92 | 0.1 ± 0.14 | 0
CC(=O)OC[C@H]1O[C@@H]([S-])[C@H](OC(C)=O)[C@@H](OC(C)=O)[C@@H]1OC(C)=O.CCP(CC)CC.[Au+] [Auranofin] | 8.5 ± 0.85 | 6.15 ± 4.5 | 2.8 ± 0.71
Cc1cc(-c2nc(-c3ccc(OC(F)(F)F)cc3)no2)nn1Cc1ccnc(N2CCN(C3CC3)CC2)c1 [BAY 87-2243] | 4.6 ± 2.3 | 3.25 ± 1.5 | 4.9 ± 0.57
Nc1nc(Nc2ccc3c(c2)CC[C@@H](N2CCCC2)CC3)nn1-c1cc2c(nn1)-c1ccccc1CCC2 [BGB324] | 7.3 ± 0.57 | 6.35 ± 1.2 | 5.65 ± 0.21
O=C1CCc2c(Oc3ccc4c(c3)[C@@H]3[C@H](O4)[C@H]3c3nc4cc(C(F)(F)F)ccc4[nH]3)ccnc2N1 [BGB-283] | 21.8 ± 0.64 | 16.9 | 16 ± 0.14
CC1(C)C(C(=O)Nc2ccc(S(=O)(=O)c3ccc(NC(=O)C4C(C)(C)C4(C)C)cc3)cc2)C1(C)C [BRD7116] | 3.75 ± 2.6 | 0.05 ± 0.071 | 0
O=C(Nc1cccc(Nc2ncc(Br)c(NCCc3cnc[nH]3)n2)c1)N1CCCC1 [BX-912] | 8.9 ± 0.42 | 7.25 ± 1.1 | 1.85 ± 0.071

SMILES | drug sensitivity score [1] | drug sensitivity score [2] | drug sensitivity score [3]
Cc1ccc(NC(=O)c2ccc(CN3CC[C@H](N(C)C)C3)c(C(F)(F)F)c2)cc1Nc1nccc(-c2cncnc2)n1 [Bafetinib] | 26.55 ± 0.21 | 19.9 ± 1.5 | 16.3
CCS(=O)(=O)N1CC(CC#N)(n2cc(-c3ncnc4[nH]ccc34)cn2)C1 [Baricitinib] | 0 | 0 | 0
N#CC(c1ccnc(OCc2ccc(CN3CCOCC3)cc2)n1)c1nc2ccccc2s1 (stereo not given) [Bentamapimod] | 2.55 ± 1.6 | 0.75 ± 1.1 | 4.25 ± 0.49
CC(O)(CS(=O)(=O)c1ccc(F)cc1)C(=O)Nc1ccc(C#N)c(C(F)(F)F)c1 (stereo not given) [Bicalutamide] | 0.25 ± 0.35 | 1.15 ± 1.6 | 0
Cn1cnc2c(F)c(Nc3ccc(Br)cc3F)c(C(=O)NOCCO)cc21 [Binimetinib] | 3.3 ± 0.42 | 0.3 ± 0.42 | 0
Cc1sc2c(c1C)C(c1ccc(Cl)cc1)=N[C@@H](CC(=O)Nc1ccc(O)cc1)c1nnc(C)n1-2 [Birabresib] | 24.1 ± 1.3 | 24.6 ± 3 | 15.2 ± 0.49
CC[C@H](NC(=O)[C@H](C)NC)C(=O)N1C[C@@H](O)C[C@H]1Cc1c(-c2[nH]c3cc(F)ccc3c2C[C@@H]2C[C@H](O)CN2C(=O)[C@H](CC)NC(=O)[C@H](C)NC)[nH]c2cc(F)ccc12 [Birinapant] | 14 ± 5.5 | 4.15 ± 5.2 | 6.15 ± 0.071
COc1cc(N2CCC(N3CCN(C)CC3)CC2)ccc1Nc1ncc(Cl)c(Nc2ccccc2P(C)(C)=O)n1 [Brigatinib] | 4.95 ± 0.35 | 2.55 ± 3.6 | 0.1 ± 0.14
Cc1cc2c(F)c(Oc3ncnn4cc(OC[C@@H](C)O)c(C)c34)ccc2[nH]1 [Brivanib] | 0 | 0 | 0
Nc1cc(C(F)(F)F)c(-c2cc(N3CCOCC3)nc(N3CCOCC3)n2)cn1 [Buparlisib] | 8.6 ± 0.42 | 8.7 ± 2.3 | 4.5 ± 0.57
Cc1nc2cccc(N)c2c(=O)n1C1CCC(=O)NC1=O (stereo not given) [CC122] | 0 | 0 | 0
CCN1C(=O)CNc2ncc(-c3ccc(-c4nc[nH]n4)nc3C)nc21 [CC-115] | 12.6 ± 2.9 | 12.8 ± 1.9 | 7.65 ± 0.21
CO[C@H]1CC[C@H](N2C(=O)CNc3ncc(-c4ccc(C(C)(C)O)nc4)nc32)CC1 [CC-223] | 7.25 ± 0.64 | 6.65 ± 2.2 | 2.45 ± 0.071
COc1cc(C)[nH]c(=O)c1CNC(=O)c1c(C)n([C@H](C)C2CCOCC2)c2ccccc12 [CPI-360] | 0 | 0 | 0
Cc1noc2c1-c1ccccc1C(c1ccc(Cl)cc1)=N[C@H]2CC(N)=O [CPI-0610] | 19.6 ± 1.1 | 19.1 ± 4.6 | 14 ± 0.28
O=C(O)CCCCC(CCSCc1ccccc1)SCc1ccccc1 (stereo not given) [CPI-613] | 0 | 0 | 0
CN(C)c1cc2c(cc1Sc1nc3c(N)nccc3n1CCNCC(C)(C)C)OCO2 [CUDC-305] | 18.3 ± 1.6 | 16.9 ± 0.21 | 17.1 ± 0.21
